Measurements taken from patent EP2229935A1, “Peptide derivatives or pharmaceutically acceptable salts thereof, method for producing the same, use of said derivatives and pharmaceutical composition” (Nebolsin, Vladimir Evgenievich, priority 1997, dated 1999).
Counter-ions that a name gives are not always drawn. Like-named read-outs stand apart in the source and are kept apart here. Marks after values point to notes of the source that are not given here.

How the values were obtained:
[1] = tested on: hepatic P-450 cytochrome system; test: Hexenal sleep duration in mice; type: in vivo; conditions: CBF1 mice, oral 3 days, control 25.91 ± 1.57
Protocol: Change in Hexenal sleep (HS) duration is the in vivo measurable index of hepatic P-450 cytochrome system condition.
Studies were carried out on male mice of the lines BALB/c*h75, C57B1/6, CBA, DBA/2, first generation CBF1 and BDF1 hybrides, with initial mass 18-20 g, each group including 10 mice; and on mongrel male guinea pigs with initial mass 250-300 g, each group including 24 animals. All the test compounds (from II to LII) were administered orally in drinking water and for three days at doses 50 and 500 µg/kg. Hexenal hydrochloride at a dose […] of animal mass was administered 24 hours after the last drug administration, except for line BALB/c*h75 mice, which were administered Hexenal at a dose 60 µg/kg at the same terms, and guinea pigs for which Hexenal dose was 30 µg/kg. HS duration was determined in minutes.

[2] = tested on: hydroxyl radical; test: Hydroxyl radical formation in the Fenton reagent (chemiluminescence); type: biochemical
Protocol: Active oxygen forms (AOF) of different nature were generated in the following systems: • A. Hydroxyl radical - in the mixture of FeSO4 with H2O2 (the Fenton reagent) [Halliwell B. Superoxide-dependent formation of hydroxyl radicals in the presence of iron salts. […] Incubation medium comprised 5 mM KH2PO4 (pH 7.4); 5 mM FeSO4; 2 mM luminol. H2O2 at final concentration 5 mM was introduced into a cuvette through a dispencer following background luminescence recording of the reagents' mixture. 5 to 10 ml of the test compounds dissolved in water were at needed concentration introduced into a cuvette.
CL flash recording duration after mixing ingredients, depended on a particular process kinetics. For each system, CL light sum (mV) was determined in the control samples without preparations (I-) and in samples comprising respective concentrations of preparations (I+). To estimate CL inhibition (activation) degree, the I+/I- ratio (in relative units) was found in the studied systems.
When H2O2 was introduced into phosphate buffer comprising iron sulfate, CL flash occured which was caused by formation of predominantly hydroxyl radical in the reaction mixture.

[3] = tested on: superoxide anion-radical; test: Superoxide anion-radical formation in the xantine-xantine oxidase system (chemiluminescence); type: biochemical
Protocol: Effect of the compounds of general formula (I) on change in chemiluminescence (CL) determined by hydroxyl radical ( OH) and superoxide anion-radical (O2-), in the model chemical and enzymatic systems.
5 to 10 ml of the test compounds dissolved in water were at needed concentration introduced into a cuvette. A total sample volume was 0.5 ml. • B. Superoxide anion-radical in the mixture of xantine and xantine oxidase [Afanas'ev I., Suslova T., Cheremisina Z. et al. Study of antioxidant properties of metal aspartates.
Incubation medium comprised 5 mM KH2PO4; 0.2 IU/ml xantine oxidase. Xantine at concentration 1 mM was introduced into sample through a dispencer. Luceginine (0.2 mM) was used in this system as luminiscence sensitizer.
CL signal indication was performed by its integration every 10 seconds for 5 minutes. CL flash recording duration after mixing ingredients, depended on a particular process kinetics. For each system, CL light sum (mV) was determined in the control samples without preparations (I-) and in samples comprising respective concentrations of preparations (I+). To estimate CL inhibition (activation) degree, the I+/I- ratio (in relative units) was found in the studied systems.
AOF formation and effect of the test compounds on this process were recorded on the Luminometer-1251 instrument (LKB, Sweden).
Because of such "distension" of the kinetic curve, chemiluminescence light sum was recorded during the first 3-5 minutes which reflected a total amount of light quantums produced in the system till achieving the maximum CL intensity values.

[4] = tested on: Lewis pulmonary carcinoma (LLC); test: Lewis pulmonary carcinoma spontaneous metastasizing, oral administration; type: in vivo; conditions: BDF1 female mice with LLC, oral 24 days; for Mean number of metastases: day 25
Protocol: Each group included 15 animals. 0.3 ml of LLC tumor tissue suspension was intramuscularly injected to mice. Henks solution was used as a solvent. […] Moscow (1992) 13 pp.]. […]

[5] = tested on: Strain Aichi of type A human influenza virus; type: in vivo; conditions: for MLT, days: series with Control - 2 (9.1), 3 days before and 10 days following infection; for Survival rate in percent: series with Control - 2 (34.5); for Protection degree in percent: series with Control - 2
[6] = tested on: Isolate HIV-1/IV17 of type 1 human immunodeficiency virus; test: Viability of MT-4 cells acutely infected with HIV-1; type: cell-based; conditions: Human immunodeficiency virus 1, MT4, 168 h, day 7, series 2 (infected cells 24, non-infected 88), read-out: Viability of cells in percent
Protocol: Study was carried out on the culture of human lymphoblastoid cells MT-4. Isolate HIV-1/IV17 of type 1 human immunodeficiency virus from the collection of the D.I.Ivanovsky Institute for Virology was used in experiment. The test compounds of general formula (I): III, VI, VII were introduced into cellular culture at concentrations 1.0; 0.1 and 0.01 µg/ml. The reference drug Azidothymidine was introduced at a dose 0.05 µM/ml. The compounds were introduced into the culture of MT-4 cells at a dose 1000 TCD50 one hour prior to virus introduction. Viability of MT-4 cells was estimated by day 7 of experiment.
Viability of cells was the main efficacy parameter of the test compounds.

[7] = tested on: peritoneal macrophages; test: Activity of peritoneal macrophages (NBT reduction test); type: in vivo, mongrel white male mice
Protocol: Change in the activity of peritoneal macrophages (PM) as effected by the test compounds was studied.
Experiments were carried out on mongrel white male mice with initial body mass 20-22 g. Each group included 10 animals. Compounds III, VI, XLIV were dissolved in normal saline (NS). The test compounds were administered to animals orally for three days at doses 50 and 500 µg/kg. Animals of the control group were given equal volume of NS. Mice were sacrified 20 hours after the last compound administration, peritoneal cavity was washed with 1.5 ml Henks solution comprising 5 U/ml heparine. 0.1 ml of wash solution were incubated for 30 minutes at 37°C with 0.1 ml 0.2% nitroblue tetrasolium (NBT) solution, then smears were prepared. Nuclei were additionaly stained with o.1% neutral red solution. Results were expressed in percent of active cells [Klimov V.V., Kolovkina T.V. Nitroblue tetrasolium reduction test stimulated with pyrogenal. Laborotornoye delo (Laboratory matter) (1982), No 10, pp. 624-625]. […]

[8] = tested on: mongrel male rats; conditions: po, 96 h;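 note: serum drawn 18 h after the final dose from rats deprived of food over that interval, groups of 10 animals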
[9] = tested on: mongrel male rats; test: Hypolipidemic activity: experimental hyperlipidemia (atherogenic load); conditions: atherogenic diet, oral last four days; for HDL-CS / Total CS / Triglycerides: blood; for Kcs: cholesterol index;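 for all read-outs here: serum drawn 18 h after the final dose from rats deprived of food over that interval, groups of 10 animals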
[10] = tested on: mongrel male mice; test: Delayed hypersensitivity induced by picryl chloride (TCB), local ointment; type: in vivo; conditions: mice, TCB
Protocol: Effect study of the compounds on the delayed type hypersensitivity reaction induced in mice by 2.4.6-trichlorobenzol (TCB) was carried out according to the method of Tarayre et al. [Tarayre J.P., Barbara M., Aliaga M., Tisne-Versilles. Comparative actions of immunosuppressants, glucocorticoids and non-steroidal antiinflammatory drugs on various models of delayed hypersensitivity and on a non-immune inflammation in mice. Arzneim.-Forsch. Drug Res. (1990), Vol. 40, pip.1125-1131].
Studies were conducted on mongrel male mice with initial body mass 30-35 g. Each group included 10 animals. Mice were sensitized with 0.1 ml 3% TCB solution in acetone application on a shaved abdominal area. In 7 days, the anaphylaxis-provoking TCB dose (0.025 ml of 3% solution) was applied on both surfaces of the right ear. In 30 minutes 0.05 ml of the test ointment were rubbed into the same surfaces. 24 hours after edema induction, mice were sacrified, ears were cut off and weighed. Allergic reaction intensity was assessed by change in weight in grams of the right ear (the test one) in relation to the left ear (the control ear).
Allergic reaction inhibition expressed in percent was calculated according to the formula: 100-[(R-L(exper.))/(L):(R-L(control))/(L)x100](%) [formula] where R - the right ear weight, L - the left ear weight.
The test compounds were applied on the ear in the form of 1% and 5% ointment the base of which were 10% methylcellulose solution and propylene glycol at 1:1 ratio.
Groups of animals: • Group 1 - control, ointment base without active substance was applied on the ear of animals. • Group 2 - ointment base comprising 1% compound III was applied on the ear of animals. • Group 3 - ointment base comprising 1% compound XVII was applied on the ear of animals. • Group 4 - ointment base comprising 5% compound XLVIII was applied on the ear of animals.

[11] = tested on: Lewis pulmonary carcinoma (LLC); test: Lewis pulmonary carcinoma growth; type: in vivo; conditions: mice with LLC, day 12
Protocol: Experiments were carried out on male mice with initial body mass 18-20 g. Each group included 10 animals. […] Administration of compounds II, III, IX, X, XII, XIV, XV, XVI, XVII, XIX, XXII, XLVII in drinking water was commenced 24 hours following transplantation and continued till the end of experiment. Effect of the compounds on Lewis rat pulmonary carcinoma (LLC) was estimated by day 12 of experiment by change in tumor volume expressed in mm^3.

[12] = 0.01 mM, control of the series as in the table
[13] = 0.1 mM, control of the series as in the table
[14] = 1 mM, control of the series 7839 ± 171, 1120 ± 163, 4974 ± 283 or 1332 ± 172
[15] = 1 mM, control of the series 5616 ± 173, 5391 ± 195, 7290 ± 128 or 6776 ± 150

## CC(=O)N[C@@H](CCC(=O)NCCc1c[nH]cn1)C(=O)O [VI, N -ACETHYL-γ-L-GLUTAMYLHISTAMINE]
[1]; 50 µg/kg
  Hexenal sleep duration (minutes): 16.86 ± 1.38*** minutes
[1]; 500 µg/kg
  Hexenal sleep duration (minutes): 14.39 ± 1.73*** minutes
[2]; [12]
  Chemiluminiscence intensity (mV) + σn-1: 5014 ± 186 mV
[2]; 0.1 mM
  relative effect: I+/I-: 0.63
[2]; [13]
  Chemiluminiscence intensity (mV) + σn-1: 3110 ± 210 mV
[2]; 1 mM
  relative effect: I+/I-: 0.05
[2]; [14]
  Chemiluminiscence intensity (mV) + σn-1: 257 ± 74 mV
[3]; [12]
  Chemiluminiscence intensity (mV) + σn-1: 7295 ± 106 mV
[3]; 0.1 mM
  relative effect: 1+/I-: 0.76
[3]; [13]
  Chemiluminiscence intensity (mV) + σn-1: 5518 ± 131 mV
[3]; 1 mM
  relative effect: 1+/I-: 0.12
[3]; [15]
  Chemiluminiscence intensity (mV) + σn-1: 902 ± 15 mV
[4]; 50 µg/kg
  Mean number of metastases: 35.5 ± 4.5*^2
  Metastasizing inhibition percent: 24.0%
[4]; 500 µg/kg
  Mean number of metastases: 39.0 ± 14.0
  Metastasizing inhibition percent: 17.0%
[5]; 50 µg/kg orally
  MLT, days: 11.24*^2 days
  Survival rate in percent: 73.3*^2%
  Protection degree in percent: 38.8%
[5]; 500 µg/kg orally
  MLT, days: 11.62*^2 days
  Survival rate in percent: 79.3*^2%
  Protection degree in percent: 44.8%
[6]
  viability at 0.01 µg/mL: 45%
  viability at 0.1 µg/mL: 49%
  viability at 1 µg/mL: 54%
[7]; mice, oral three days at 50 and 500 µg/kg
  portion of active macrophages: at a dose 50 µg/kg
[7]; score 0 (no formazane inclusions, inactive PM), 50 µg/kg orally for three days
  Activity of macrophages, percent: 17.9 ± 1.4%
[7]; score 0 (no formazane inclusions, inactive PM), 500 µg/kg orally for three days
  Activity of macrophages, percent: 20.3 ± 3.4%
[7]; score 1 (single formazane inclusions), 50 µg/kg orally for three days
  Activity of macrophages, percent: 30.9 ± 3.0%
[7]; score 1 (single formazane inclusions), 500 µg/kg orally for three days
  Activity of macrophages, percent: 37.9 ± 3.1%
[7]; score 2 (inclusions fill up to 1/3 of PM cytoplasm), 50 µg/kg orally for three days
  Activity of macrophages, percent: 40.3 ± 2.1%
[7]; score 2 (inclusions fill up to 1/3 of PM cytoplasm), 500 µg/kg orally for three days
  Activity of macrophages, percent: 34.0 ± 4.0%
[7]; score 3 (inclusions fill up to 1/2 of PM cytoplasm), 50 µg/kg orally for three days
  Activity of macrophages, percent: 10.4 ± 1.9%
[7]; score 3 (inclusions fill up to 1/2 of PM cytoplasm), 500 µg/kg orally for three days
  Activity of macrophages, percent: 7.1 ± 2.0%
[8]; 0.05 mg/kg
  LDL-CS+ VLDL-CS: 50,3±5,5**^A
[8]; 0.5 mg/kg
  LDL-CS+ VLDL-CS: 25,0±1,6***^A
[9]; 50 µg/kg
  HDL-CS: 35,7±5,6*^A
  Total CS: 86,0±5,2
  Triglycerides: 141,2±16,1***^A
  Kcs: 1,41±0,16***^A
[9]; 500 µg/kg
  HDL-CS: 45,8±3,5***^A
  Total CS: 70,8±3,7***^A
  Triglycerides: 127,2+7,1***^A
  Kcs: 0,55±0,04***^A

## O=C(O)CCCC(=O)NCCc1c[nH]c2ccccc12 [compound XVII, N-GLUTARYLTRYPTAMINE]
[10]; 1% ointment
  Reaction inhibition (%): 24%
  weight increment: 6.1 ± 0.59 g
[10]; 1% ointment on right ear 30 minutes after challenge, 24 hours
  Weight of years (g) Right: 21.6 ± 1.02 g
[10]; left (control) ear of animals given 1% ointment
  Weight of years (g) left: 15.5 ± 1.02 g
[11]; compound in drinking water
  Growth inhibition percent: 48%
[11]; compound in drinking water from 24 hours after transplantation
  Tumor volume (mm^3): 1367 ± 233** mm^3

## COC(=O)[C@H](Cc1c[nH]cn1)NC(=O)CC[C@H](N)C(=O)O [compound VII, γ -L-GLUTAMYL-HISTIDINE METHYL ETHER DIHYDROCHLORIDE]
[1]; 50 µg/kg
  Hexenal sleep duration (minutes): 17.62 ± 0.96* minutes
[1]; 500 µg/kg
  Hexenal sleep duration (minutes): 16.99 ± 1.33* minutes
[2]; [13]
  Chemiluminiscence intensity (mV) + σn-1: 1158 ± 102 mV
[2]; 1 mM
  relative effect: I+/I-: 0.15
[2]; [14]
  Chemiluminiscence intensity (mV) + σn-1: 165 ± 7 mV
[3]; 0.01 mM
  relative effect: 1+/I-: 0.91
[3]; [12]
  Chemiluminiscence intensity (mV) + σn-1: 5082 ± 278 mV
[3]; 0.1 mM
  relative effect: 1+/I-: 0.72
[3]; [13]
  Chemiluminiscence intensity (mV) + σn-1: 4050 ± 291 mV
[3]; 1 mM
  relative effect: 1+/I-: 0.20
[3]; [15]
  Chemiluminiscence intensity (mV) + σn-1: 1114 ± 51 mV
[5]; mice, influenza virus, 500 µg/kg
  increase in MLT, survival rate and protection degree: most manifested
[6]
  viability at 0.01 µg/mL: 34%
  viability at 0.1 µg/mL: 49%
  viability at 1 µg/mL: 51%
[8]; 0.05 mg/kg
  LDL-CS+ VLDL-CS: 46,3±3,2**^A
[8]; 0.5 mg/kg
  LDL-CS+ VLDL-CS: 55,8±3,9**^A
[9]; 50 µg/kg
  HDL-CS: 26,0±1,9
  Total CS: 72,3±4,9**^A
  Triglycerides: 250,6±12,0
  Kcs: 1,78±0,12***^A
[9]; 500 µg/kg
  HDL-CS: 22,3±2,2
  Total CS: 78,1±3,3
  Triglycerides: 251,4±12,71
  Kcs: 2,5±0,17**^A
